Experimental findings from patent US11560371B2, “Cereblon binding compounds, compositions thereof, and methods of treatment therewith” (Celgene Corporation, priority 2020, dated 2023) are described below.

Structures are written as SMILES. Structures can show the parent of a compound that is named as a salt. Where only a bound is given, the exact number is not on record here.

This experiment addresses T1, AR (Homo sapiens, UniProt P10275).
T1 construct: endogenous in cells; host or cells: VCaP cells
T1 sequence (P10275 1-920): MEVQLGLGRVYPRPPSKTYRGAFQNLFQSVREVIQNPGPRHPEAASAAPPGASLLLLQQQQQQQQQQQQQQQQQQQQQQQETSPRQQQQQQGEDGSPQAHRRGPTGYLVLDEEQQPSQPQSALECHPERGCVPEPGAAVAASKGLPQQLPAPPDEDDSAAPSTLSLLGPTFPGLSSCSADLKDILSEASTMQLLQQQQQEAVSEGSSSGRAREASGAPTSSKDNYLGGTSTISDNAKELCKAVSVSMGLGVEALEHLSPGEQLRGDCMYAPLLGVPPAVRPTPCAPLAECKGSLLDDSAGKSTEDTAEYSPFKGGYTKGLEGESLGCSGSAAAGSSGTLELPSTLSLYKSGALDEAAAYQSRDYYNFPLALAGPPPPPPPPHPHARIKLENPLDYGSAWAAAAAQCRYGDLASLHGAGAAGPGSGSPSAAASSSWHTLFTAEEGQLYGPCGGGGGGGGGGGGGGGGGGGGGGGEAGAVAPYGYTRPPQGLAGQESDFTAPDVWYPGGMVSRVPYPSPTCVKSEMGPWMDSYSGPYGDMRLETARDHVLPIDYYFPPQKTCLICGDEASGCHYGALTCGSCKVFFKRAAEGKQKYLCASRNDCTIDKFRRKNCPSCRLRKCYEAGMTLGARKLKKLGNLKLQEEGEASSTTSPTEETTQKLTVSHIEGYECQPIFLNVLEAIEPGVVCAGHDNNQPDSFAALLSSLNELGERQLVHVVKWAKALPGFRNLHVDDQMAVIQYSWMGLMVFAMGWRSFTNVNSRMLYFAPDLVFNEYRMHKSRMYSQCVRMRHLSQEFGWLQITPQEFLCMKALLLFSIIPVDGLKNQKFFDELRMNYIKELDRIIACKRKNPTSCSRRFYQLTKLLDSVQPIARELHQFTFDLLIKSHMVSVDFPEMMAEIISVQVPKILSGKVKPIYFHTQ
As to the kind of experiment: VCAP AR Degradation Assay. Format: cell-based. To be noted: VCaP cells, 24 h, AR ELISA; for DC50: concentration of compound when AR level = 50% of DMSO control (50% AR degradation); for Y: lowest measured AR level normalized to DMSO control (AR degradation efficiency). As to the method: VCAP AR Degradation Assay. Test compounds were pre-dispensed into a Corning CellBind 96-well clear bottom plate (Cat #3300) using an acoustic dispenser to make a 10-point concentration series at 1:3 dilution for each compound. The final top concentration of each compound was 5 μM. DMSO at a final concentration of 0.1% was used as a control. VCaP cells cultured in DMEM with 8% fetal bovine serum (FBS) were seeded at 50K cells per well in a 200 μL volume into the compound plate and incubated at 37° C. in a CO2 incubator for 24 h. The medium was carefully removed from the cells and the plate was placed on ice. […] ice-cold 1× cell lysis buffer from Cell Signaling Technologies (Cat #9803) was added to each well of the cells and the plate was incubated at 4° C. on a shaker for 1 h. Fifteen μL of cell lysate was used for AR ELISA detection using a PathScan Total Sandwich AR ELISA kit (Cell Signaling Technology, Cat #12580). AR levels in compound-treated wells were normalized to that of DMSO control and expressed as percent of control (PoC) (y). A Four Parameter Logistic Model (Sigmoidal Dose-Response Model) was used to determine the compound's DC50, and EC50, using the following equation: y=(A+((B−A)/(1+((C/x)^D)))) • A=YMin (lowest AR level normalized to DMSO control in response to compound treatment, as determined by curve fit) • B=YMax (maximum AR level as determined by curve fit) • C=EC50 • D=Hill Slope • x=compound concentration • EC50=the concentration of compound when y=[…] • DC50=the concentration of the compound when y=50% of DMSO control (50% AR degradation) • y=AR protein level normalized to DMSO control
The lowest measured AR level normalized to DMSO control in response to compound treatment, termed Y value, was used to characterize the compound-mediated AR degradation efficiency.

As a reminder, the DC50 is the midpoint of the concentration-degradation curve. Turning to `Cn1nc(N2CCC(=O)NC2=O)c2cccc(NC(=O)CN3CCN(CCC[C@H]4CC[C@H](N5C(=S)N(c6ccc(C#N)c(C(F)(F)F)c6)C(=O)C5(C)C)CC4)C[C@@H]3C(F)(F)F)c21` [Cmpd 23, 2-((R)-4-(3-(trans-4-(3-(4-cyano-3-(trifluoromethyl)phenyl)-5,5-dimethyl-4-oxo-2-thioxoimidazolidin-1-yl)cyclohexyl)propyl)-2-(trifluoromethyl)piperazin-1-yl)-N-(3-(2,4-dioxotetrahydropyrimidin-1(2H)-yl)-1-methyl-1H-indazol-7-yl)acetamide], the half-maximal degradation concentration (DC50) lay within 2 to 10 nM and the Y result was “** (20%<Y≤%)”.
As for `C[C@@H]1CN(CCO[C@H]2CC[C@H](N3C(=S)N(c4ccc(C#N)c(C(F)(F)F)c4)C(=O)C3(C)C)CC2)C[C@H](C)N1CCC(=O)Nc1cccc2c(N3CCC(=O)NC3=O)nn(C)c12` [Cmpd 5, 3-((2R,6S)-4-(2-((trans-4-(3-(4-Cyano-3-(trifluoromethyl)phenyl)-5,5-dimethyl-4-oxo-2-thioxoimidazolidin-1-yl)cyclohexyl)oxy)ethyl)-2,6-dimethylpiperazin-1-yl)-N-(3-(2,4-dioxotetrahydropyrimidin-1(2H)-yl)-1-methyl-1H-indazol-7-yl)propanamide], the 50% degradation concentration (DC50) is 2 to 10 nM and the Y entry is “*** (30%<Y<60%)”.
The corresponding values for `C[C@@H]1CN(CCC[C@H]2CC[C@H](N3C(=S)N(c4ccc(C#N)c(Cl)c4)C(=O)C3(C)C)CC2)C[C@H](C)N1CC(=O)Nc1cccc2c(N3CCC(=O)NC3=O)nn(C)c12` [Cmpd 11, 2-((2S,6R)-4-(3-(trans-4-(3-(3-Chloro-4-cyanophenyl)-5,5-dimethyl-4-oxo-2-thioxoimidazolidin-1-yl)cyclohexyl)propyl)-2,6-dimethylpiperazin-1-yl)-N-(3-(2,4-dioxotetrahydropyrimidin-1(2H)-yl)-1-methyl-1H-indazol-7-yl)acetamide hydrochloride] are 10 to 100 nM and “*** (30%<Y<60%)”.
Take `C[C@@H]1CN(CCO[C@H]2CC[C@H](N3C(=S)N(c4cnc(C#N)c(Cl)c4)C(=O)C3(C)C)CC2)C[C@H](C)N1CC(=O)Nc1cccc2c(N3CCC(=O)NC3=O)nn(C)c12` [Cmpd 6, 2-((2R,6S)-4-(2-((trans-4-(3-(5-Chloro-6-cyanopyridin-3-yl)-5,5-dimethyl-4-oxo-2-thioxoimidazolidin-1-yl)cyclohexyl)oxy)ethyl)-2,6-dimethylpiperazin-1-yl)-N-(3-(2,4-dioxotetrahydropyrimidin-1(2H)-yl)-1-methyl-1H-indazol-7-yl)acetamide hydrochloride]: the DC50 is at most 2 nM and the Y result is “* (0<Y≤20%)”.
For the molecule `C[C@@H]1C[C@H](OCC[C@H]2CC[C@H](N3C(=S)N(c4ccc(C#N)c(C(F)(F)F)c4)C(=O)C3(C)C)CC2)C[C@H](C)N1CC(=O)Nc1cccc2c(N3CCC(=O)NC3=O)nn(C)c12` [Cmpd 31, 2-((2R,4r,6S)-4-(2-((trans)-4-(3-(4-Cyano-3-(trifluoromethyl)phenyl)-5,5-dimethyl-4-oxo-2-thioxoimidazolidin-1-yl)cyclohexyl)ethoxy)-2,6-dimethylpiperidin-1-yl)-N-(3-(2,4-dioxotetrahydropyrimidin-1(2H)-yl)-1-methyl-1H-indazol-7-yl)acetamide], the DC50 is 2 to 10 nM and the Y entry was “** (20%<Y≤%)”.
The corresponding values for `C[C@@H]1C[C@H](CCO[C@H]2CC[C@H](N3C(=S)N(c4cnc(C#N)c(C(F)(F)F)c4)C(=O)C3(C)C)CC2)C[C@H](C)N1CC(=O)Nc1cccc2c(N3CCC(=O)NC3=O)nn(C)c12` [Cmpd 28, 2-((2R,4r,6S)-4-(2-(((trans)-4-(3-(6-Cyano-5-(trifluoromethyl)pyridin-3-yl)-5,5-dimethyl-4-oxo-2-thioxoimidazolidin-1-yl)cyclohexyl)oxy)ethyl)-2,6-dimethylpiperidin-1-yl)-N-(3-(2,4-dioxotetrahydropyrimidin-1(2H)-yl)-1-methyl-1H-indazol-7-yl)acetamide] are at most 2 nM and “* (0<Y≤20%)”.
For `C[C@@H]1CN(CCO[C@H]2CC[C@H](N3C(=S)N(c4ccc(C#N)c(Cl)c4)C(=O)C3(C)C)CC2)C[C@H](C)N1CC(=O)Nc1cccc2c(N3CCC(=O)NC3=O)nn(C)c12` [Cmpd 3, 2-((2R,6S)-4-(2-((trans-4-(3-(3-Chloro-4-cyanophenyl)-5,5-dimethyl-4-oxo-2-thioxoimidazolidin-1-yl)cyclohexyl)oxy)ethyl)-2,6-dimethylpiperazin-1-yl)-N-(3-(2,4-dioxotetrahydropyrimidin-1(2H)-yl)-1-methyl-1H-indazol-7-yl)acetamide hydrochloride] the same measures were 2 to 10 nM and “*** (30%<Y<60%)”.
For `C[C@@H]1C[C@@H](CCO[C@H]2CC[C@H](N3C(=S)N(c4ccc(C#N)c(C(F)(F)F)c4)C(=O)C3(C)C)CC2)C[C@H](C)N1CC(=O)Nc1cccc2c(N3CCC(=O)NC3=O)nn(C)c12` [Cmpd 13, 2-((2R,4s,6S)-4-(2-((trans-4-(3-(4-Cyano-3-(trifluoromethyl)phenyl)-5,5-dimethyl-4-oxo-2-thioxoimidazolidin-1-yl)cyclohexyl)oxy)ethyl)-2,6-dimethylpiperidin-1-yl)-N-(3-(2,4-dioxotetrahydropyrimidin-1(2H)-yl)-1-methyl-1H-indazol-7-yl)acetamide hydrochloride] the same measures were 2 to 10 nM and “* (0<Y≤20%)”.
On to `Cn1nc(N2CCC(=O)NC2=O)c2cccc(NC(=O)CN3CCN(CCO[C@H]4CC[C@H](N5C(=S)N(c6ccc(C#N)c(C(F)(F)F)c6)C(=O)C5(C)C)CC4)C[C@@H]3C(F)(F)F)c21` [Cmpd 20, 2-((R)-4-(2-((trans-4-(3-(4-Cyano-3-(trifluoromethyl)phenyl)-5,5-dimethyl-4-oxo-2-thioxoimidazolidin-1-yl)cyclohexyl)oxy)ethyl)-2-(trifluoromethyl)piperazin-1-yl)-N-(3-(2,4-dioxotetrahydropyrimidin-1(2H)-yl)-1-methyl-1H-indazol-7-yl)acetamide hydrochloride], for which the DC50 was at most 2 nM and the Y result was “** (20%<Y≤%)”.
`Cn1nc(N2CCC(=O)NC2=O)c2cccc(NC(=O)CN3CCN(CCCO[C@H]4CC[C@H](N5C(=S)N(c6ccc(C#N)c(C(F)(F)F)c6)C(=O)C5(C)C)CC4)C[C@@H]3C(F)(F)F)c21` [Cmpd 26, 2-((R)-4-(3-(((trans)-4-(3-(4-Cyano-3-(trifluoromethyl)phenyl)-5,5-dimethyl-4-oxo-2-thioxoimidazolidin-1-yl)cyclohexyl)oxy)propyl)-2-(trifluoromethyl)piperazin-1-yl)-N-(3-(2,4-dioxotetrahydropyrimidin-1(2H)-yl)-1-methyl-1H-indazol-7-yl)acetamide]: the DC50 fell in the range of 2 to 10 nM and the Y entry is “* (0<Y≤20%)”.
With `C[C@@H]1C[C@H](OCC[C@H]2CC[C@H](N3C(=S)N(c4cnc(C#N)c(C(F)(F)F)c4)C(=O)C3(C)C)CC2)C[C@H](C)N1CC(=O)Nc1cccc2c(N3CCC(=O)NC3=O)nn(C)c12` [Cmpd 32, 2-((2R,4r,6S)-4-(2-((trans)-4-(3-(6-Cyano-5-(trifluoromethyl)pyridin-3-yl)-5,5-dimethyl-4-oxo-2-thioxoimidazolidin-1-yl)cyclohexyl)ethoxy)-2,6-dimethylpiperidin-1-yl)-N-(3-(2,4-dioxotetrahydropyrimidin-1(2H)-yl)-1-methyl-1H-indazol-7-yl)acetamide], the DC50 is 2 to 10 nM and the Y entry was “* (0<Y≤20%)”.
